Where two headings read alike, the source gives them in different places.
Key:
human CTPS1 = molecular target: T1, human CTPS1 (Homo sapiens, UniProt P17812); experiment: Human CTPS1 enzyme inhibition (ADP-Glo Max assay); assay type: biochemical; conditions: ADP-Glo Max assay, read-out: CTPS1 (Human CTPS1 Enzyme Inhibition data grouped by potency range, IC50)
T1 construct: purchased Proteros biostructures GmbH
T1 sequence (P17812 1-591): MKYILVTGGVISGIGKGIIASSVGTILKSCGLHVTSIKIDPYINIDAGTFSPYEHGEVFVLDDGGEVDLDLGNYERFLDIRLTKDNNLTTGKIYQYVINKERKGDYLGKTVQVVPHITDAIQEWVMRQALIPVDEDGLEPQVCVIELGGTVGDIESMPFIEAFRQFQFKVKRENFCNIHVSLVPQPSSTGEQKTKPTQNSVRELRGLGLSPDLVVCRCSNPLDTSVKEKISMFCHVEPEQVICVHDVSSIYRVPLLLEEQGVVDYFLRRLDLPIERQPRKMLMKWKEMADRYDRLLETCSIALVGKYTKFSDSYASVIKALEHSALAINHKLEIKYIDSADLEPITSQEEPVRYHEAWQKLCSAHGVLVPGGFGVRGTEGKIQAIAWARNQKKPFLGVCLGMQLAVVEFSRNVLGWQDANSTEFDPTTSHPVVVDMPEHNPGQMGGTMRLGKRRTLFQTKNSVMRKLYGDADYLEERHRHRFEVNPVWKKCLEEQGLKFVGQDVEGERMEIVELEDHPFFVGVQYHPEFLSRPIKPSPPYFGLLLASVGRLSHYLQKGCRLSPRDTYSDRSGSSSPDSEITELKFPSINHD
How it was run: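 Full-length FLAG-His-tagged human CTPS1 and compound were preincubated 10 min at 25 °C in 50 mM Tris pH 8.0, 10 mM MgCl2, 0.01% Tween-20, 2 mM L-cysteine. Substrate mix: ATP 0.31 mM, GTP 0.034 mM, UTP 0.48 mM, glutamine 0.186 mM; linear-phase reaction at 25 °C. ADP-Glo Max luminescence; IC50 from inhibition curve.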

human CTPS1 versus CTPS2 = experiment: Human CTPS1 versus CTPS2 selectivity assessment by RapidFire/MS analysis; assay type: biochemical
Description: Biological Example 2—RapidFire/MS-Based Enzyme Selectivity Assays.
Human CTPS1 Versus CTPS2 Selectivity Assessment by RapidFire/MS Analysis.
The enzyme inhibitory activities against each target isoform of interest may be determined for the compounds of the invention using an optimised RapidFire high-throughput mass spectrometry (RF/MS) assay format. RF/MS assays for both human CTPS1 and CTPS2 may be performed in assay buffer consisting of 50 mM HEPES (Merck), 20 mM MgCl2, 5 mM KCl, 1 mM DTT, 0.01% Tween-20, pH to 8.0 accordingly. Human full-length active C-terminal FLAG-His-tag CTPS1 (UniProtKB-P17812, CTPS[1-591]-[…]) may be obtained from Proteros biostructures GmbH. Human full length active C-terminal FLAG-His-Avi tagged CTPS2 (UniProtKB-Q9NRF8, CTPS2 [1-586]-[…]) may be obtained from Harker Bio.
Human CTPS (1 or 2) protein may be prepared in 1× assay buffer to the final working protein concentration required for the reaction. A 2 uL volume per well of 2×CTPS (1 or 2) protein may be mixed with 40 nL of compound using acoustic (ECHO) delivery and incubated for 10 minutes at 25° C. Each isoform enzymatic reaction may be subsequently initiated by addition of 2 uL per well of a 2× substrate mix in assay buffer. For hCTPS1: ATP (0.3 mM), UTP (0.2 mM), GTP (0.07 mM) and L-glutamine (0.1 mM). For hCTPS2: ATP (0.1 mM), UTP (0.04 mM), GTP (0.03 mM) and L-glutamine (0.1 mM). Each mixture may be incubated for an appropriate amount of time per isoform within the determined linear phase of the reaction at 25° C. A 60 uL volume of stop solution (1% formic acid with 0.5 uM ^13C9-^15N3-CTP in H2O) may be added and the plate immediately heat-sealed and centrifuged for 10 minutes at 4,000 rpm. Following centrifugation, plates may be loaded onto the Agilent RapidFire microfluidic solid phase extraction system coupled to an AP14000 triple quadrupole mass spectrometer (RF/MS) for analysis.
In all cases, the enzyme converts UTP to CTP. Highly specific and sensitive multiple reaction monitoring (MRM) MS methods may be optimised for the detection of the enzymatic reaction product, CTP, and the stable isotope labelled product standard ^13C9-^15N3-CTP. Readout for data analysis may be calculated as the ratio between the peak area of the product CTP and the internal standard ^13C9-^15N3-CTP. For data reporting, the following equation may be used: […]
For each screening plate, the means of the negative (DMSO) and positive control values were used for the calculation of the respective assay window (S/B) and Z′ values. The median of the respective control values was used for calculation of percent inhibition according to the following equation: […]
Percentage inhibition was then plotted against compound concentration, and the 50% inhibitory concentration (IC50) was determined from the resultant concentration-response curve.
Fold selectivity between CTPS1 and CTPS2 was subsequently calculated according to the following equation: […]

SMILES	Selectivity (fold selectivity between CTPS1 and CTPS2) (human CTPS1 versus CTPS2; Table 26)	further results
CCOc1cncc(-c2ccc(NC(=O)C3(c4ccnc(NS(=O)(=O)C5CC5)n4)CCC(O)CC3)nc2)n1 (single isomer, unassigned) [Example P227, 1-(2-(cyclopropanesulfonamido)pyrimidin-4-yl)-N-(5-(6-ethoxypyrazin-2-yl)pyridin-2-yl)-4-hydroxycyclohexanecarboxamide]		IC50 (human CTPS1; Table 24): ≤ 100 nM; Selectivity (fold selectivity between CTPS1 and CTPS2) (human CTPS1 versus CTPS2; Table 27): +++ (>60 fold (+++))
CCOc1cncc(-c2ccc(NC(=O)C3(c4ccnc(NS(=O)(=O)C5CC5)n4)CCC(O)CC3)nc2)n1 (single isomer, unassigned) [Example P228, 1-(2-(cyclopropanesulfonamido)pyrimidin-4-yl)-N-(5-(6-ethoxypyrazin-2-yl)pyridin-2-yl)-4-hydroxycyclohexanecarboxamide]		IC50 (human CTPS1; Table 24): 1000 to 10000 nM; Selectivity (fold selectivity between CTPS1 and CTPS2) (human CTPS1 versus CTPS2; Table 27): + (2-30 fold (+))
CCOc1cncc(-c2ccc(NC(=O)C3(c4ccnc(NS(=O)(=O)C5CC5)n4)CCC(N(C)C)CC3)nc2)n1 (single isomer, unassigned) [Example P229, 1-(2-(cyclopropanesulfonamido)pyrimidin-4-yl)-4-(dimethylamino)-N-(5-(6-ethoxypyrazin-2-yl)pyridin-2-yl)cyclohexane-1-carboxamide]		IC50 (human CTPS1; Table 24): ≤ 100 nM; Selectivity (fold selectivity between CTPS1 and CTPS2) (human CTPS1 versus CTPS2; Table 27): +++ (>60 fold (+++))
CCOc1cncc(-c2ccc(NC(=O)C3(c4ccnc(NS(=O)(=O)C5CC5)n4)CCC(N(C)C)CC3)nc2)n1 (single isomer, unassigned) [Example P230, 1-(2-(cyclopropanesulfonamido)pyrimidin-4-yl)-4-(dimethylamino)-N-(5-(6-ethoxypyrazin-2-yl)pyridin-2-yl)cyclohexane-1-carboxamide]		IC50 (human CTPS1; Table 24): ≤ 100 nM; Selectivity (fold selectivity between CTPS1 and CTPS2) (human CTPS1 versus CTPS2; Table 27): +++ (>60 fold (+++))
CCC(C(=O)Nc1ccc(-c2cncc(Cl)c2)cc1)c1ccnc(NS(=O)(=O)C2CC2)n1 (centres unmarked) [Example P1, N-(4-(5-Chloropyridin-3-yl)phenyl)-2-(2-(cyclopropanesulfonamido)pyrimidin-4-yl)butanamide]	+ (2-30 fold (+))	
CCOc1cncc(-c2ccc(NC(=O)C3(c4ccnc(NS(=O)(=O)C5CC5)n4)CCCC3)cc2)n1 [Example P2, 1-(2-(Cyclopropanesulfonamido)pyrimidin-4-yl)-N-(4-(6-ethoxypyrazin-2-yl)phenyl)cyclopentanecarboxamide]	+++ (>60 fold (+++))	IC50 (human CTPS1; Table 23): ≤ 100 nM
CC(C)Oc1cncc(-c2ccc(NC(=O)C(C)(C)c3ccnc(NS(=O)(=O)C4CC4)n3)nc2)n1 [Example P9]	+++ (>60 fold (+++))	
CC(C)Oc1cncc(-c2ccc(NC(=O)Cc3ccnc(NS(=O)(=O)C4CC4)n3)c(F)c2)n1 [Example P12]	++ (>30-60 fold (++))	IC50 (human CTPS1; Table 23): ≤ 100 nM
O=C(Cc1ccnc(NS(=O)(=O)C2CC2)n1)Nc1ccc(-c2cccnc2)cc1 [Example P16]	++ (>30-60 fold (++))	IC50 (human CTPS1; Table 23): 100 to 1000 nM
CCC(C(=O)Nc1ccc(-c2cncc(C(F)(F)F)n2)cn1)c1ccnc(NS(=O)(=O)C2CC2)n1 (centres unmarked) [Example P87]	++ (>30-60 fold (++))	
CCOc1cncc(-c2ccc(NC(=O)C(CC)c3ccnc(NS(=O)(=O)C4CC4)n3)nc2)n1 (centres unmarked) [Example P88]	+++ (>60 fold (+++))	
CCC(C(=O)Nc1ccc(-c2cncc(OC(C)C)n2)cn1)c1ccnc(NS(=O)(=O)C2CC2)n1 (centres unmarked) [Example P89]	+++ (>60 fold (+++))	
CCC(C(=O)Nc1ccc(-c2cncc(OC)n2)cc1F)c1ccnc(NS(=O)(=O)C2CC2)n1 (centres unmarked) [Example P95]	+ (2-30 fold (+))	
CCOc1cncc(-c2ccc(NC(=O)C(CC)c3ccnc(NS(=O)(=O)C4CC4)n3)c(F)c2)n1 (centres unmarked) [Example P96]	+ (2-30 fold (+))	
CCC(C(=O)Nc1ccc(-c2cncc(OCC(F)(F)F)n2)cc1F)c1ccnc(NS(=O)(=O)C2CC2)n1 (centres unmarked) [Example P98]	+++ (>60 fold (+++))	
CCC(C(=O)Nc1ccc(-c2cncc(C(F)(F)F)n2)cc1)c1ccnc(NS(=O)(=O)C2CC2)n1 (centres unmarked) [Example P103]	+ (2-30 fold (+))	
CCOc1cncc(-c2ccc(NC(=O)C(CC)c3ccnc(NS(=O)(=O)C4CC4)n3)cc2)n1 (centres unmarked) [Example P105, 2-(2-(Cyclopropanesulfonamido)pyrimidin-4-yl)-N-(4-(6-ethoxypyrazin-2-yl)phenyl)butanamide]	++ (>30-60 fold (++))	
CCC(C(=O)Nc1ccc(-c2cncc(OCC(F)(F)F)n2)cc1)c1ccnc(NS(=O)(=O)C2CC2)n1 (centres unmarked) [Example P108]	+++ (>60 fold (+++))	
CCOc1cncc(-c2ccc(NC(=O)C(CCOC)c3ccnc(NS(=O)(=O)C4CC4)n3)cc2)n1 (centres unmarked) [Example P110]	++ (>30-60 fold (++))	
CCOc1cncc(-c2ccc(NC(=O)C(CC)c3cccc(NS(=O)(=O)C4CC4)n3)nc2)n1 (centres unmarked) [Example P188]	++ (>30-60 fold (++))	
CCOc1cncc(-c2ccc(NC(=O)C(CC)c3cccc(NS(=O)(=O)C4CC4)n3)cc2)n1 (centres unmarked) [Example P191]	++ (>30-60 fold (++))	
CCOc1cncc(-c2ccc(NC(=O)C(C)(CCOC)c3cncc(NS(=O)(=O)C4CC4)n3)nc2)n1 (centres unmarked) [Example P198]	+++ (>60 fold (+++))	
CCOc1cncc(-c2ccc(NC(=O)C(F)(CC)c3cncc(NS(=O)(=O)C4CC4)n3)nc2)n1 (centres unmarked) [Example P200]	++ (>30-60 fold (++))	
CCOc1cncc(-c2ccc(NC(=O)C(CC)c3cncc(NS(=O)(=O)C4CC4)n3)nc2)n1 (centres unmarked) [Example P201]	+++ (>60 fold (+++))	
CCOc1cncc(-c2ccc(NC(=O)C(CC)c3cncc(NS(=O)(=O)C4CC4)n3)cc2)n1 (centres unmarked) [Example P202]	+++ (>60 fold (+++))	
CCOc1cncc(-c2ccc(NC(=O)C(C)(OC)c3cncc(NS(=O)(=O)C4CC4)n3)nc2)n1 (centres unmarked) [Example P205a]	+++ (>60 fold (+++))	
CCOc1cncc(-c2ccc(NC(=O)C(C)(OC)c3cncc(NS(=O)(=O)C4CC4)n3)nc2)n1 (centres unmarked) [Example P205b]	++ (>30-60 fold (++))	
CCOc1cncc(-c2ccc(C(=O)NC(CC)c3ccnc(NS(=O)(=O)C4CC4)n3)c(F)c2)n1 (centres unmarked) [Example P216]	+++ (>60 fold (+++))	

— patent US20230002352A1, “SULFONAMIDE DERIVATIVES AS CTPS1 INHIBITORS” (Step Pharma S.A.S., priority 2019, published 2023)
